Drawing on patent US20170158702A1, “MULTIVALENT RAS BINDING COMPOUNDS” (KYRAS THERAPEUTICS, INC., priority 2015, published 2017), this text covers EC50 for 33 compounds.

What all share (format): cell-based
One assay has as its system NCI-H460. Kind of assay: Viability assay with NCI-H460 (CellTiter-Glo cytotoxicity assay, 72 h). The following applies: NCI-H460 cell line, 72 h after compounds addition. The essentials:
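NCI-H460 cells, RPMI 1640 + 10% FBS, seeded 1200/well and adhered overnight, then exposed to compounds at 9 points, 2-fold dilution, in triplicate, 0.5% DMSO final. Cellular ATP measured by CellTiter-Glo luminescence 72 h after addition.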
(Cellular ATP, detected with luciferase, serves as a proxy for viable cell number.)

The subject of another assay is NCI-H2023. Kind of assay: Viability assay with NCI-H2023. The following applies: NCI-H2023, viability assay per Example 57. The protocol:
NCI-H460 (Epithelial lung tissue; carcinoma; large cell lung cancer) were cultured in RPMI Medium 1640 (Invitrogen-22400105) supplemented with 10% fetal bovine serum (FBS; Invitrogen-10099141). All the cell lines were maintained in a humidified incubator at 37° C. with 5% CO2. Cell culture media and supplements were purchased from Invitrogen, and tissue culture flasks were purchased from Corning, 96-well plates were purchased from Greiner. CellTiter-Glo Luminescent Cell Viability Assay kits were purchased from Promega (Promega-G7573), cells counter Vi-Cell was purchased from Beckman, D300e digital dispenser was purchased from Tecan, detection instrument Envision was purchased from PerkinElmer.
Paclitaxel was purchased from SELLECK, test compounds, such as any one of the compounds disclosed herein, attained solubility in DMSO and when diluted into culture media. DMSO, solutions containing the test compounds, and culture media were warmed to 37° C. or room temperature for the solution preparation and dilutions.
NCI-H460 Cell line were seeded in 96-well plates (1200/well) and allowed to adhere to overnight (100 uL/well), for drug treatments with 2 fold dilution, 9 dose points, triplicates or vehicle control, compound stock solutions were prepared in DMSO and use D300e digital dispenser to add compounds to the wells to give the indicated final drug concentrations. Final DMSO concentration was 0.5%. Cellular ATP concentrations were assessed by using the CellTiter-Glo Cell Viability Assay as per the manufacturer's instructions 72 h after compounds addition. Additional cells lines were assayed with any one of the compounds disclosed herein according to the procedures described for the viability assay with NCI-H460.
A viability assay with NCI-H2023 (stage 3A, adenocarcinoma; non-small cell lung cancer) was performed with compounds listed in Table 16 according to the procedures described in Example 57.

The test system of another assay is MIA PaCa-2. As to the kind of experiment: Viability assay with MIA PaCa-2. The settings on record: MIA PaCa-2, viability assay per Example 57. The essentials:
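MIA PaCa-2 cells were seeded at 1200/well, allowed to adhere overnight, then treated in triplicate with 9-point 2-fold compound dilutions at 0.5% final DMSO. Viability was measured as cellular ATP by CellTiter-Glo luminescence 72 h after compound addition.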

The test system of the next assay is HT-29. As to the kind of experiment: Viability assay with HT-29. The following applies: HT-29, viability assay per Example 57. The essentials:
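Cells seeded 1200/well, adhered overnight, then treated with 9-point 2-fold compound dilutions in triplicate (0.5% final DMSO). Viability taken as cellular ATP by CellTiter-Glo luminescence 72 h after compound addition.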

Counter-ions that a name gives are not always drawn.

As usually defined, the EC50 is the concentration at which the effect is half-maximal. Low readings indicate greater potency, high ones weaker potency. Take `CNCCCn1cc(-c2ccc(OC(F)(F)F)cc2)c2cc(CN3CCN(Cc4c(Cl)cccc4Cl)CC3)ccc21` [C21; Formic acid]: the concentration giving a half-maximal response (EC50) with NCI-H460, in the assay on NCI-H2023 and in the assay with MIA PaCa-2 was not above 5 µM in each case.
As to `NC1(C(=O)NCCCn2cc(-c3ccc(OC(F)(F)F)cc3)c3cc(CN4CCNCC4)ccc32)CCNCC1` [C48; HCl], the concentration giving a half-maximal response (EC50) in the assay on NCI-H460, with NCI-H2023 and in the assay on MIA PaCa-2 was more than 30 µM in each case.
Take `OCCNCCCn1cc(-c2ccc(OC(F)(F)F)cc2)c2cc(CN3CCN(Cc4c(Cl)cccc4Cl)CC3)ccc21` [Compound C20, 2-(3-(5-((4-(2,6-dichlorobenzyl)piperazin-1-yl)methyl)-3-(4-(trifluoromethoxy)phenyl)-1H-indol-1-yl)propylamino)ethanol]: the EC50 in the assay on NCI-H460 (Homo sapiens), in the assay with NCI-H2023 and with MIA PaCa-2 (Homo sapiens) was not above 5 µM each time.
As to `NCCCn1cc(-c2ccc(OC(F)(F)F)cc2)c2cc(CN3CCN(Cc4cccc(F)c4Cl)CC3)ccc21` [C19; HCl], the 50% effective concentration (EC50) in the assay on NCI-H460, in the assay on NCI-H2023 and in the assay on MIA PaCa-2 was not above 5 µM in each case.
Regarding `CCOC(=O)CNCCCn1cc(-c2ccc(OC(F)(F)F)cc2)c2cc(CN3CCN(Cc4c(Cl)cccc4Cl)CC3)ccc21` [Compound C28, ethyl 2-(3-(5-((4-(2,6-dichlorobenzyl)piperazin-1-yl)methyl)-3-(4-(trifluoromethoxy)phenyl)-1H-indol-1-yl)propylamino)acetate], the results for the EC50 in the assay on NCI-H460 (Homo sapiens), with NCI-H2023 and in the assay on MIA PaCa-2 (Homo sapiens) were 5 to 10 µM, 5 to 10 µM and not above 5 µM, respectively.
As for `NC1CCC(c2cn(-c3ccc(OC(F)(F)F)cc3)c3cc(CN4CCN(Cc5c(Cl)cccc5Cl)CC4)ccc23)C1` (stereo not drawn) [C30; HCl], the EC50 in the assay with NCI-H460, in the assay with NCI-H2023 and in the assay on MIA PaCa-2 was not above 5 µM each time.
As to `CC(=O)NCCCn1cc(-c2ccc(OC(F)(F)F)cc2)c2cc(CN3CCN(Cc4c(Cl)cccc4Cl)CC3)ccc21` [C47; Formic acid], the EC50 with NCI-H460, in the assay with NCI-H2023 and with MIA PaCa-2 was not above 5 µM throughout.
As for `NC1(C(=O)NCCCn2cc(-c3ccc(O)cc3)c3cc(CN4CCN(Cc5c(Cl)cccc5Cl)CC4)ccc32)CCNCC1` [C36; HCl], the EC50 in the assay with NCI-H460 was more than 30 µM; with NCI-H2023 it was more than 30 µM; with MIA PaCa-2, 10 to 30 µM.
For `Cc1ccc(-c2cn(CCCN)c3ccc(CN4CCN(Cc5c(Cl)cccc5Cl)CC4)cc23)cc1` [C51; HCl], the 50% effective concentration (EC50) in the assay with NCI-H460, in the assay on NCI-H2023 and in the assay with MIA PaCa-2 was not above 5 µM throughout.
Consider `NCCCn1cc(-c2ccc(OC(F)(F)F)cc2)c2cc(CN3CCN(C(=O)c4ccccc4Cl)CC3)ccc21` [C15; HCl], for which the EC50 with NCI-H460, with NCI-H2023 and with MIA PaCa-2 was not above 5 µM throughout.
In the case of `NCCNCCCn1cc(-c2ccc(OC(F)(F)F)cc2)c2cc(CN3CCN(Cc4c(Cl)cccc4Cl)CC3)ccc21` [C26; HCl], the EC50 in the assay on NCI-H460, in the assay on NCI-H2023 and in the assay with MIA PaCa-2 was not above 5 µM in each case.
With `NCCCn1cc(-c2ccc(N)nc2)c2cc(CN3CCN(Cc4c(Cl)cccc4Cl)CC3)ccc21` [C18; HCl], the half-maximal effective concentration (EC50) with NCI-H460, in the assay with NCI-H2023 and with MIA PaCa-2 was not above 5 µM each time.
With `NCCCn1cc(-c2ccc(OC(F)(F)F)cc2)c2cc(CN3CC4CCC(C3)N4Cc3ccccc3Cl)ccc21` [C17; HCl], the concentration giving a half-maximal response (EC50) with NCI-H460, in the assay with NCI-H2023 and with MIA PaCa-2 was not above 5 µM throughout.
With `N[C@H]1CC[C@H](n2cc(-c3ccc(OC(F)(F)F)cc3)c3cc(CN4CCN(Cc5c(Cl)cccc5Cl)CC4)ccc32)C1` [C42; HCl], the concentration giving a half-maximal response (EC50) in the assay on NCI-H460, in the assay with NCI-H2023 and in the assay with MIA PaCa-2 was not above 5 µM each time.
For `CC(C)(N)C(=O)NCCCn1cc(-c2ccc(OC(F)(F)F)cc2)c2cc(CN3CCN(Cc4c(Cl)cccc4Cl)CC3)ccc21` [C46; HCl], the concentration for a half-maximal effect (EC50) with NCI-H460, in the assay with NCI-H2023 and in the assay on MIA PaCa-2 was not above 5 µM in each case.
On to `CN(C)Cc1ccc2c(c1)c(-c1ccc(OC(F)(F)F)cc1)cn2CCCNC(=O)C1(N)CCNCC1` [C29; HCl], for which the EC50 was 10 to 30 µM with NCI-H460, 10 to 30 µM with NCI-H2023 and more than 30 µM with MIA PaCa-2.
Consider `NC1(C(=O)NCCCn2cc(-c3ccc(OC(F)(F)F)cc3)c3cc(CN4CCN(Cc5c(Cl)cccc5Cl)CC4)ccc32)CCNCC1` [C41; Trifluoroacetic acid], for which the EC50 in the assay on NCI-H460, with NCI-H2023 and in the assay on MIA PaCa-2 was not above 5 µM each time.
Turning to `N#Cc1ccc(-c2cn(CCCNC(=O)C3(N)CCNCC3)c3ccc(CN4CCN(Cc5c(Cl)cccc5Cl)CC4)cc23)cc1` [C40; HCl], the 50% effective concentration (EC50) with NCI-H460, in the assay with NCI-H2023 and with MIA PaCa-2 was not above 5 µM throughout.
As for `N#Cc1ccc(-c2cn(CCCN)c3ccc(CN4CCN(Cc5c(Cl)cccc5Cl)CC4)cc23)cc1` [C33; HCl], the EC50 in the assay on NCI-H460, in the assay with NCI-H2023 and in the assay with MIA PaCa-2 was not above 5 µM throughout.
Take `NCC(=O)NCCCn1cc(-c2ccc(OC(F)(F)F)cc2)c2cc(CN3CCN(Cc4c(Cl)cccc4Cl)CC3)ccc21` [C52; HCl]: the 50% effective concentration (EC50) in the assay on NCI-H460, in the assay on NCI-H2023 and with MIA PaCa-2 was not above 5 µM each time.
For `NC1(C(=O)NCCCn2cc(-c3ccc(OC(F)(F)F)cc3)c3cc(CN4CCN(c5ccccc5)CC4)ccc32)CCNCC1` [C38; HCl], the EC50 in the assay with NCI-H460, in the assay with NCI-H2023 and with MIA PaCa-2 was not above 5 µM in each case.
`NC1(C(=O)NCCCn2cc(-c3ccc(OC(F)(F)F)cc3)c3cc(CN4CCN(Cc5c(F)cccc5F)CC4)ccc32)CCNCC1` [C55; HCl]: the EC50 with NCI-H460, in the assay on NCI-H2023 and in the assay on MIA PaCa-2 was not above 5 µM in each case.
`NCCCn1cc(-c2ccccc2)c2cc(CN3CCN(Cc4c(Cl)cccc4Cl)CC3)ccc21` [C37; HCl]: the values for the 50% effective concentration (EC50) in the assay on NCI-H460, in the assay on NCI-H2023 and in the assay with MIA PaCa-2 were not above 5 µM, 5 to 10 µM and 5 to 10 µM, respectively.
On to `NCCCn1cc(-c2ccc(O)cc2)c2cc(CN3CCN(Cc4c(Cl)cccc4Cl)CC3)ccc21` [C44; HCl], for which the EC50 in the assay with NCI-H460, in the assay with NCI-H2023 and in the assay with MIA PaCa-2 was not above 5 µM throughout.
As for `NCCCn1cc(-c2ccc(F)cc2)c2cc(CN3CCN(Cc4c(Cl)cccc4Cl)CC3)ccc21` [C23; Formic acid], the EC50 in the assay on NCI-H460, in the assay with NCI-H2023 and in the assay with MIA PaCa-2 was not above 5 µM in each case.
Take `CNCc1ccc2c(c1)c(-c1ccc(OC(F)(F)F)cc1)cn2CCCNC(=O)C1(N)CCNCC1` [C16; HCl]: the EC50 in the assay on NCI-H460, in the assay with NCI-H2023 and in the assay with MIA PaCa-2 was more than 30 µM in each case.
On to `COc1cc(OC)cc(OC2CCN(Cc3ccc4c(c3)c(-c3ccc(OC(F)(F)F)cc3CN)cn4CCCN)CC2)c1` [C281; HCl], for which the EC50 with NCI-H460, with HT-29 and in the assay on MIA PaCa-2 was not above 5 µM in each case.
`NCCCn1cc(-c2ccc(OC(F)(F)F)cc2)c2cc(CN3CCSCC3)ccc21` [C293; HCl]: the EC50 in the assay on NCI-H460, in the assay on HT-29 and in the assay on MIA PaCa-2 was not above 5 µM each time.
In the case of `COc1ccc(-c2cn(CCCN)c3ccc(CN4CCN(Cc5ccccc5Cl)CC4)cc23)c(CN)c1` [C222; HCl], the EC50 in the assay on NCI-H460, in the assay with HT-29 and in the assay on MIA PaCa-2 was not above 5 µM throughout.
In the case of `FC(F)(F)Oc1ccc(-c2cn(CCCCNc3ccccn3)c3ccc(CN4CCN(Cc5ccccc5Cl)CC4)cc23)cc1` [C202; Formic Acid], the results for the EC50 with NCI-H460, in the assay on HT-29 and with MIA PaCa-2 were not above 5 µM, 5 to 10 µM and 5 to 10 µM, respectively.
Regarding `NCCCn1cc(-c2ccc(C(N)=O)cc2)c2cc(CN3CCN(Cc4ccccc4Cl)CC3)ccc21` [C180; HCl], the EC50 in the assay on NCI-H460, in the assay on HT-29 and with MIA PaCa-2 was not above 5 µM each time.
For `COc1ncc(-c2cn(CCCN)c3ccc(CN4CCN(Cc5ccccc5Cl)CC4)cc23)cn1` [C143; HCl], the concentration giving a half-maximal response (EC50) in the assay with NCI-H460, in the assay on HT-29 and in the assay with MIA PaCa-2 was 5 to 10 µM each time.
As to `NCCCn1cc(-c2ccc(OC(F)(F)F)cc2)c2cc(CN3CCC(Nc4ccccc4Cl)CC3)ccc21` [C213; Formic Acid], the half-maximal effective concentration (EC50) in the assay on NCI-H460, in the assay on HT-29 and in the assay on MIA PaCa-2 was not above 5 µM each time.
